Each structure is given as a SMILES string. Where two headings read alike, the source gives them in different places.

In data set [1] the test system is MERS-CoV (isolate NRCE-HKU270). The data set is described as follows: microbe, parasite or virus in culture. The class given is cell-based. As to conditions: for IC50: Middle East respiratory syndrome-related coronavirus.
Data set [2] deals with SARS-CoV-2 (hCoV-19/Egypt/NRC-3/2020, NRC-03-nhCoV). The data set is described as follows: microbe, parasite or virus in culture. The format is cell-based. As to conditions: for IC50: Severe acute respiratory syndrome coronavirus 2, Vero C1008, 72 h.
A short description of a further data set: in vitro. As to conditions: African green monkey, CC50, Vero-E6 cells, crystal violet.
Data set [3] has as its system MERS-CoV. The format is cell-based.
Data set [4] relates to SARS-CoV-2. The format is cell-based.
The subject of data set [5] is MERS-CoV. The format is cell-based. The source holds these as a separate data set.
The test system of data set [6] is SARS-CoV-2. The data set is described as follows: microbe, parasite or virus in culture. The format is cell-based.
Setting [7] is: Vero C1008, read-out: IC50 MERS-CoV.
The mark [8] stands for this setting: Vero C1008, read-out: IC50 against MERS-CoV.
[9] abbreviates: read-out: IC50 against SARS-CoV-2.

As a reminder, the IC50 is the midpoint of a concentration-inhibition curve. For orientation: CC50 means the concentration at which the toxic effect on the cells reaches its halfway point. The low end stands for harm at low concentration, the high end for better tolerance by the cells. For the compound `CN(C)CCC[C@@]1(c2ccc(F)cc2)OCc2cc(C#N)ccc21` [Escitalopram], the figures for the IC50 in data set [1] (setting [7]), in data set [1] (setting [8]) and in data set [2] (setting [9]) were 93.6 µM, 93.5 µM and 209 µM, respectively. This compound showed a CC50 at 72 h in the data set “in vitro” of 352 µM.

What is called inhibition is the drop in the measured response relative to a control, in per cent. In the case of `Fc1ccc([C@@H]2CCNC[C@H]2COc2ccc3c(c2)OCO3)cc1` [Paroxetine], in the data set with MERS-CoV [3], the “mode of action against MERS-CoV” value was “virucidal and replication potential combination mechanisms”. Further, the “selectivity index (CC50/IC50) for MERS-CoV” value in data set [1] was determined as 34.2. For the same compound, the figures for the IC50 in data set [1] (setting [7]), in data set [1] (setting [8]) and in data set [2] (setting [9]) were 7.73 µM, 7.7 µM and 22.7 µM, respectively. In data set [2], the “selectivity index (CC50/IC50) for SARS-CoV-2” value is on record as 11.6. Moreover, the “mode of action against SARS-CoV-2” value in the data set on SARS-CoV-2 [4] is “remarkable virucidal effect and effects on virus replication”. In addition, in “in vitro”, the CC50 at 72 h was found to be 264 µM. Also, the “effect on viral RNA copy number (qRT-PCR)” value (from here on “effect”) in the data set with MERS-CoV [5] and in the data set on SARS-CoV-2 [6] was “reduction in viral RNA copy number” in each case. Moreover, the inhibition at 8.3 µM with SARS-CoV-2 [6] (Severe acute respiratory syndrome coronavirus 2, Vero C1008, 48 h, read-out: viral inhibition compared to untreated and infected cells (qRT-PCR)) was 99%.

Take `CN(C)CCCC1(c2ccc(F)cc2)OCc2cc(C#N)ccc21` (stereo not drawn) [Citalopram]: the concentration for half-maximal inhibition (IC50) in data set [1] (setting [7]) was found to be 303 µM; in data set [1] (setting [8]), 302 µM; in data set [2] (setting [9]), 172 µM. Moreover, the cytotoxic concentration (CC50) at 72 h in the data set “in vitro” and in “in vitro” (values given in Fig. 2) was 295 µM throughout.

As to `CN[C@H]1CC[C@@H](c2ccc(Cl)c(Cl)c2)c2ccccc21` [Sertraline], in the data set on MERS-CoV [3], the “mode of action against MERS-CoV” value was “virucidal and adsorption mechanisms”. For the same compound, the half-maximal cytotoxic concentration (CC50) at 72 h in the data set “in vitro” turned out to be 116 µM. The “effect” value with MERS-CoV [5] is “reduction in viral RNA copy number”.

With `CN1CCN(C(=O)O[C@H]2c3nccnc3C(=O)N2c2ccc(Cl)cn2)CC1` [Eszopiclone], the concentration for half-maximal inhibition (IC50) in data set [1] (setting [8]) was 99.9 µM; in data set [2] (read-out: IC50 SARS-CoV-2), 80 µM; in data set [2] (setting [9]) it was 80 µM. The compound further yielded a cytotoxic concentration (CC50) at 72 h in the data set “in vitro” of 193 µM.

For `CN1CCN2c3ncccc3Cc3ccccc3C2C1` (stereo not drawn) [Mirtazapine], the IC50 in data set [1] (setting [8]) was determined as 132 µM; in data set [2] (setting [9]), 180 µM. The CC50 at 72 h in “in vitro” and in “in vitro” (values given in Fig. 2) was 572 µM throughout.

For the compound `CN(C)CCC=C1c2ccccc2CCc2ccccc21` [Amitriptyline], the results for the 50% inhibitory concentration (IC50) in data set [1] (setting [8]) and in data set [2] (setting [9]) were 129 µM and 10.7 µM, respectively. Also, the “selectivity index (CC50/IC50) for SARS-CoV-2” value in data set [2] was 28.5. The “mode of action against SARS-CoV-2” value in the data set on SARS-CoV-2 [4] was “remarkable virucidal effect and effects on virus replication”. In addition, in the data set “in vitro”, it took 306 µM to reach half-maximal cytotoxicity (CC50 at 72 h). In addition, the “effect” value in the data set on SARS-CoV-2 [6] is on record as “reduction in viral RNA copy number”.

On to `CN(C)CCCN1c2ccccc2CCc2ccccc21` [Imipramine], for which the “mode of action against MERS-CoV” value in the data set on MERS-CoV [3] is “virucidal and replication potential combination mechanisms”. The “selectivity index (CC50/IC50) for MERS-CoV” value in data set [1] was 19. For the same compound, the concentration for half-maximal inhibition (IC50) in data set [1] (setting [8]) was found to be 14.2 µM; in data set [2] (read-out: IC50 SARS-CoV-2) it was 29.5 µM; in data set [2] (setting [9]) it was 29.4 µM. Also, the figures for the CC50 at 72 h in the data set “in vitro” and in “in vitro” (values given in Fig. 2) were 270 µM and 271 µM, respectively. Also, the “effect” value in the data set with MERS-CoV [5] is “reduction in viral RNA copy number”.
